Source: patent US20070287699A1, “ANTIVIRAL AGENTS” (ViroBay, Inc., priority 2006, published 2007)
pIC50: −log10 of the molar value.

The molecules below were run on HCV replicon RNA replication in human Huh7 hepatoma cells (assay: HCV replicon assay (activity levels from either or both of HCV replicon assay 1, Huh7/Clone A RT-qPCR, and assay 2, Huh7 ET luc-ubi-neo/ET)). Settings: Hepatitis C virus, Huh-7, either or both HCV replicon assays: Huh7/Clone A, 48 hours, 72 hours, Luc activity or RT-PCR, read-out: inhibit HCV replication at IC50 levels or estimated IC50 levels.
Type: cell-based, Hepatitis C virus (HCV)
Description: The HCV replicon assay is a cell-culture system that mimics in vivo HCV replication and provides a system to study HCV replication in vitro. It was created by transfecting cloned viral RNA derived from a consensus HCV genomic sequence into human Huh7 hepatoma cells that are semi-permissive for viral RNA production (Lohmann V., Korner F., Koch J.-O., Herian U., Theilmann L. and Bartenschlager R. (1999). Replication of subgenomic Hepatitis C virus RNAs in a hepatoma cell line. Science 285, 110-113 and Blight K. J., Kolykhalov A. A. and Rice C. M. (2000). Efficient initiation of HCV RNA Replication in cell culture. Science 290, […]). These transfected cell lines contain a subgenomic HCV RNA genome that includes (1) the HCV 5′NTR fused to 12 amino acids of the capsid coding region, (2) the neomycin phosphotransferase gene (Neo) as a selectable marker, (3) the internal ribosome entry site (IRES) from encephalomyocarditis virus (EMCV) that directs translation of HCV non-structural proteins (variously NS2 or NS3 to NS5B), and (4) the 3′ NTR. Replicon-containing cells autonomously and persistently replicate HCV RNA that can be measured quantitatively by real-time qPCR. Therefore, the replicon system facilitates quantitative assessment of anti-viral activity by monitoring changes in HCV RNA replication in a cell-based assay.
HCV replicon-containing cells (Huh7/Clone A) were routinely maintained in Clone A growth medium (DMEM medium [Invitrogen], supplemented with 10% Fetal Bovine Serum, 1% Non Essential Amino Acids and 1 g/L G418). Test compounds were dissolved in dimethyl sulfoxide (DMSO) to make 200× stock solutions for all doses prior to treatment.
For the HCV replicon assay, Huh7/Clone A cells were trypsinized from culture flasks, seeded in 1 ml of Clone A growth medium without G418 at 4×10^4 cells per well in 24-well plates and incubated at 37° C. in a humidified CO2 (5%) incubator overnight. Following overnight incubation, compound solutions were added into wells in the same volume (5 μl of 200× compound stock per well) to give a final DMSO concentration of 0.5%. Three wells on each plate supplemented with 5 μl of DMSO served as untreated controls. For IC50 determinations, compounds were tested at 7 serial dilutions in triplicates from the starting stock solutions. The plates were incubated at 37° C. for 48 hours. After incubation, cells were harvested, transferred to 96-well plates, and subjected to total RNA extraction using the RNA Isolation Kit (RNeasy 96, Qiagen) according to the protocol described by the manufacture's RNeasy 96 Handbook (Qiagen).
Total RNA eluted in 130 μl of RNase-free dH2O was quantitated by the RiboGreen Assay according to the supplier's protocol (Molecular Probe). Briefly, 5 μl of RNA samples were aliquoted in duplicate to a 96-well black microplate and a 96-well TaqMan Optical plate. RNA samples in the black microplate were mixed with 95 μl of diluted RiboGreen:reagent (1:250 dilution in TE buffer) and sample fluorescence was measured using a fluorescence microplate reader at standard fluorescein wavelengths (excitation ˜480 nm, emission ˜520 nm). Ribosomal RNA (Molecular Probe) was used as standard.
TaqMan quantitative PCR (RT-qPCR) was used to quantitate the amount of HCV replicon RNA in each sample. The RT-qPCR reactions were performed in 25 μl on an ABI PRISM 7900 HT Sequence Detection System (Applied Biosystems). The reaction mixture contained 5 μl of total RNA (10-100 ng), 1× TaqMan Buffer A (Applied Biosystems), 5.5 mM MgCl2, 1.2 mM dNTP mix, 0.625 U of AmpliTaq Gold (Applied Biosystems), 5 U of MMLV reverse transcriptase (Promega), 5 U of rRNasin (Promega), 300 nM each of the forward and reverse primers, and 100 nM TaqMan MGB probe. Primers and probe were designed to hybridize to a portion of the neomycin resistance gene (neo) in the replicon and the sequences are as follows: forward primer 5′-GGCTACCTGCCCATTCGA-3′; reverse primer 5′-CCGGCTTCCATCCGAGTAC-3′; MGB probe 5′-CCACCAAGCGAAACA-3′. […]
`CN1CCN(c2cc3c(cc2F)c(=O)c(-c2noc(Cc4ccc(F)cc4)n2)cn3Cc2c(F)cccc2F)CC1` [Compound 49, 1-(2,6-difluoro-benzyl)-6-fluoro-3-[5-(4-fluoro-benzyl)-[1,2,4]oxadiazol-3-yl]-7-(4-methyl-piperazin-1-yl)-1H-quinolin-4-one] was tested, and the pIC50 was over 5.00.
For `O=c1c(-c2noc(Cc3ccc(F)cc3)n2)cn(Cc2ccc(Cl)cc2)c2cc(N3CCN(c4ccccn4)CC3)c(F)cc12` [Compound 50, 1-(4-chlorobenzyl)-6-fluoro-3-(5-(4-fluorobenzyl)-1,2,4-oxadiazol-3-yl)-7-(4-(pyridin-2-yl)piperazin-1-yl)quinolin-4(1H)-one], the pIC50 was under 5.00.
Molecule `CN(C)c1cc2c(cc1F)c(=O)c(-c1noc(Cc3ccccc3)n1)cn2Cc1ccc(C(F)(F)F)cc1F` [Compound 51, 3-(5-benzyl-[1,2,4]oxadiazol-3-yl)-7-dimethylamino-6-fluoro-1-(2-fluoro-4-trifluoromethyl-benzyl)-1H-quinolin-4-one] has a pIC50 of under 5.00.
`CN1CCN(c2cc3c(cc2F)c(=O)c(-c2noc(CN4CCCCC4)n2)cn3Cc2ccc(Cl)cc2)CC1` [Compound 52, 1-(4-chloro-benzyl)-6-fluoro-7-(4-methyl-piperazin-1-yl)-3-(5-piperidin-1-ylmethyl-[1,2,4]oxadiazol-3-yl)-1H-quinolin-4-one] gave a pIC50 of under 5.00.
Work on `CN1CCN(c2cc3c(cc2F)c(=O)c(-c2noc(C(CC#N)c4ccccc4)n2)cn3Cc2ccc(Cl)cc2)CC1` (stereo not drawn) [Compound 53, 3-{3-[1-(4-chloro-benzyl)-6-fluoro-7-(4-methyl-piperazin-1-yl)-4-oxo-1,4-dihydro-quinolin-3-yl]-[1,2,4]oxadiazol-5-yl}-3-phenyl-propionitrile] yielded a pIC50 of over 5.00.
For `CN1CCN(c2cc3c(cc2F)c(=O)c(-c2noc(CN4CCCC4)n2)cn3Cc2ccc(Cl)cc2)CC1` [Compound 54, 1-(4-chloro-benzyl)-6-fluoro-7-(4-methyl-piperazin-1-yl)-3-(5-pyrrolidin-1-ylmethyl-[1,2,4]oxadiazol-3-yl)-1H-quinolin-4-one], the pIC50 was under 5.00.
`CNc1cc2c(cc1F)c(=O)c(-c1noc(Cc3ccccc3)n1)cn2Cc1ccc(C(F)(F)F)cc1F` [Compound 55, 3-(5-Benzyl-[1,2,4]oxadiazol-3-yl)-6-fluoro-1-(2-fluoro-4-trifluoromethyl-benzyl)-7-methylamino-1H-quinolin-4-one] gave a pIC50 of under 5.00.
In the case of `O=c1c(-c2noc(Cc3ccccc3)n2)cn(Cc2ccc(C(F)(F)F)cc2F)c2cc(-n3ccnc3)c(F)cc12` [Compound 56, 3-(5-benzyl-[1,2,4]oxadiazol-3-yl)-6-fluoro-1-(2-fluoro-4-trifluoromethyl-benzyl)-7-imidazol-1-yl-1H-quinolin-4-one], the pIC50 was over 5.70.
Molecule `Cc1cn(-c2cc3c(cc2F)c(=O)c(-c2noc(Cc4ccccc4)n2)cn3Cc2ccc(C(F)(F)F)cc2F)cn1` [Compound 57, 3-(5-benzyl-[1,2,4]oxadiazol-3-yl)-6-fluoro-1-(2-fluoro-4-trifluoromethyl-benzyl)-7-(4-methyl-imidazol-1-yl)-1H-quinolin-4-one] has a pIC50 of over 5.00.
Work on `CN1CCN(c2cc3c(cc2F)c(=O)c(-c2noc(Cc4ccc(F)cc4)n2)cn3CCN2CCOCC2)CC1` [Compound 58, 6-fluoro-3-[5-(4-fluoro-benzyl)-[1,2,4]oxadiazol-3-yl]-7-(4-methyl-piperazin-1-yl)-1-(2-morpholin-4-yl-ethyl)-1H-quinolin-4-one] yielded a pIC50 of under 5.00.
`CN1CCN(c2cc3c(cc2F)c(=O)c(-c2noc(Cc4ccccc4)n2)cn3CCN2CCOCC2)CC1` [Compound 59, 3-(5-benzyl-[1,2,4]oxadiazol-3-yl)-6-fluoro-7-(4-methyl-piperazin-1-yl)-1-(2-morpholin-4-yl-ethyl)-1H-quinolin-4-one] showed a pIC50 of under 5.00.
With `CN1CCN(c2cc3c(cc2F)c(=O)c(-c2noc(C(CC(N)=O)c4ccccc4)n2)cn3Cc2ccc(Cl)cc2)CC1` (stereo not drawn) [Compound 60, 3-{3-[1-(4-chloro-benzyl)-6-fluoro-7-(4-methyl-piperazin-1-yl)-4-oxo-1,4-dihydro-quinolin-3-yl]-[1,2,4]oxadiazol-5-yl}-3-phenyl-propionamide] the pIC50 was under 5.00.
`CN1CCN(c2cc3c(cc2F)c(=O)c(-c2noc(Cc4ccccn4)n2)cn3Cc2ccc(Cl)cc2)CC1` [Compound 61, 1-(4-chloro-benzyl)-6-fluoro-7-(4-methyl-piperazin-1-yl)-3-(5-pyridin-2-ylmethyl-[1,2,4]oxadiazol-3-yl)-1H-quinolin-4-one] was tested, and the pIC50 was under 5.00.
For `CN1CCN(c2cc3c(cc2F)c(=O)c(-c2noc(Cc4cccnc4)n2)cn3Cc2ccc(Cl)cc2)CC1` [Compound 62, 1-(4-chloro-benzyl)-6-fluoro-7-(4-methyl-piperazin-1-yl)-3-(5-pyridin-3-ylmethyl-[1,2,4]oxadiazol-3-yl)-1H-quinolin-4-one], the pIC50 was under 5.00.
Work on `CN1CCN(c2cc3c(cc2F)c(=O)c(-c2noc(C(CCCC#N)c4ccccc4)n2)cn3Cc2ccc(Cl)cc2)CC1` (stereo not drawn) [Compound 63, 5-{3-[1-(4-chloro-benzyl)-6-fluoro-7-(4-methyl-piperazin-1-yl)-4-oxo-1,4-dihydro-quinolin-3-yl]-[1,2,4]oxadiazol-5-yl}-5-phenyl-pentanenitrile] yielded a pIC50 of over 5.70.
Molecule `CN1CCN(c2cc3c(cc2F)c(=O)c(-c2noc(Cc4ccc(F)cc4)n2)cn3Cc2ccc(Cl)nc2)CC1` [Compound 64, 1-(6-chloro-pyridin-3-ylmethyl)-6-fluoro-3-[5-(4-fluoro-benzyl)-[1,2,4]oxadiazol-3-yl]-7-(4-methyl-piperazin-1-yl)-1H-quinolin-4-one] has a pIC50 of over 5.00.
`CN1CCN(c2cc3c(cc2F)c(=O)c(-c2noc(Cc4ccccc4)n2)cn3Cc2ccc(Cl)nc2)CC1` [Compound 65, 3-(5-benzyl-[1,2,4]oxadiazol-3-yl)-1-(6-chloro-pyridin-3-ylmethyl)-6-fluoro-7-(4-methyl-piperazin-1-yl)-1H-quinolin-4-one] was tested, and the pIC50 was over 5.00.
`COC(=O)CNc1cc2c(cc1F)c(=O)c(-c1noc(Cc3ccccc3)n1)cn2Cc1ccc(C(F)(F)F)cc1F` [Compound 66, methyl[3-(5-benzyl-[1,2,4]oxadiazol-3-yl)-6-fluoro-1-(2-fluoro-4-trifluoromethyl-benzyl)-4-oxo-1,4-dihydro-quinolin-7-ylamino]-acetate] was tested, and the pIC50 was under 5.00.
Molecule `CN1CCN(c2cc3c(cc2F)c(=O)c(-c2noc(C(CCC(N)=O)c4ccccc4)n2)cn3Cc2ccc(Cl)cc2)CC1` (stereo not drawn) [Compound 67, 4-{3-[1-(4-chloro-benzyl)-6-fluoro-7-(4-methyl-piperazin-1-yl)-4-oxo-1,4-dihydro-quinolin-3-yl]-[1,2,4]oxadiazol-5-yl}-4-phenyl-butyramide] has a pIC50 of over 5.00.
`COc1ccc2c(=O)c(-c3noc(Cc4ccccc4)n3)cn(Cc3ccc(C(F)(F)F)cc3)c2c1` [Compound 68, 3-(5-benzyl-oxadiazol-3-yl)-7-methoxy-1-(4-trifluoromethyl-benzyl)-1H-quinolin-4-one] showed a pIC50 of under 5.00.
For `NC(=O)CNc1cc2c(cc1F)c(=O)c(-c1noc(Cc3ccccc3)n1)cn2Cc1ccc(C(F)(F)F)cc1F` [Compound 69, 2-[3-(5-benzyl-[1,2,4]oxadiazol-3-yl)-6-fluoro-1-(2-fluoro-4-trifluoromethyl-benzyl)-4-oxo-1,4-dihydro-quinolin-7-ylamino]-acetamide], the pIC50 was over 5.00.
